For data set [1], the target named is HIV-1 reverse transcriptase (HIV-1 M:B_HXB2R, UniProt P04585). Put plainly: Inhibition of HIV-1 reverse transcriptase (TTP incorporation, poly[rA]-oligo[dT]12-18 primer-template). It counts as biochemical. The conditions noted are these: for inhibition of reverse transcriptase activity (effect on reaction kinetics): at concentrations of up to 10,000 fmols. The protocol: (§1) Reverse transcriptase assays were performed using substantially purified HIV-1 reverse transcriptase and poly[rA]-oligo[dT]12-18 as primer-template. The reactions were carried out in a total volume of 10 μl; a 4.5 μl volume of the sample was mixed with an equal volume of a reaction mixture to provide a final concentration of 50 mM Tris (pH 8.5), 6 mM MgCl2, 10 mM dithiothreitol (DTT), 2.0 μg bovine serum albumin (BSA), 0.5 μCi TTP, 80 mM KCl, and 0.05% Triton X-100. The reaction was initiated by the addition of 1.0 μl of HIV reverse transcriptase (containing~1 ng protein; from American BioTechnology,Cambridge, Mass.; Cat. No. 26001). After 1 hour incubation at 37° C., the reaction was stopped by the addition of 5.0 μof stop buffer (50 mM EDTA+3% SDS). The reverse transcriptase products (polymerization products) were separated from the unincorporated label by chromatography on Sephadex G-25 (superfine) columns. The fractions corresponding to the void volume were collected and counted by scintillation counting.

Data set [2] concerns human immunodeficiency virus reverse transcriptase. The conditions noted are these: cited from earlier work.
For data set [3], the system named is CEM cells. Nature of the data set: Zidovudine triphosphate level in CEM cells by HPLC-RIA. The class given is in vitro ADME. The conditions noted are these: 4 hr incubation with 1 μM zidovudine, n = 3. The protocol: (§2) One fraction was analyzed by HPLC and zidovudine metabolites were quantitated by usual radioisotopic methods.
(§3) Cell extracts were analyzed and quantified by using the different assays as described in Materials and Methods. Statistical parameters represent the standard deviation of the mean (δ) of three determinations of parallel samples.
CEM cells were extracted in the same manner as cultured peripheral blood mononuclear cell samples (see Materials and Methods). […] The samples were cleaned up using Waters Sep-pak C-18 cartridges. The cartridges were conditioned with 10% methanol and then rinsed with water. Each sample was applied separately and eluted with 50% methanol. The samples were vacuum desiccated to a volume under 500 μl and further purified with a 250 mm Whatman ODS-3 column. Buffer A was 35% methanol and buffer B was 50% methanol. The gradient was 15 min at 0% B followed by 20 min at 100% B with a flow rate of 0.5 ml/min and fractions collected every min. The fractions containing zidovudine were pooled and vacuum desiccated to dryness. […] The antibody was diluted 1:3 and preincubated with the sample 2 hours.

For data set [4], the system named is CEM cells. Put plainly: Zidovudine triphosphate level in CEM cells by reverse transcriptase bioassay. The class given is in vitro ADME. The conditions noted are these: 4 hr incubation with 1 μM zidovudine, n = 3. The protocol:
(§4) Preparation of cell extracts. […] The cell pellets were resuspended in 1 ml of residual media and layered onto 150 μl of nyosil oil, and spun through the oil. The media above the oil layer was removed, and any residual media was removed by rinsing the area above the oil layer by two gentle water washes. Finally, the oil was removed and the cells were extracted with 70% methanol+15 mM Tris-HCl buffer (pH 7.4) for at least 15 min on ice. The debris was removed by centrifugation and the samples stored at -20° C. until required.
Reverse transcriptase assays were performed using substantially purified HIV-1 reverse transcriptase and poly[rA]-oligo[dT]12-18 as primer-template. The reactions were carried out in a total volume of 10 μl; a 4.5 μl volume of the sample was mixed with an equal volume of a reaction mixture to provide a final concentration of 50 mM Tris (pH 8.5), 6 mM MgCl2, 10 mM dithiothreitol (DTT), 2.0 μg bovine serum albumin (BSA), 0.5 μCi TTP, 80 mM KCl, and 0.05% Triton X-100. […] The fractions corresponding to the void volume were collected and counted by scintillation counting.
as §2
Cell extracts were analyzed and quantified by using the different assays as described in Materials and Methods. […]

For data set [5], the system named is peripheral blood mononuclear cells. The conditions noted are these: AIDS patients receiving 300 mg oral zidovudine; cited from earlier work.
Data set [6] has the same test system. Nature of the data set: Intracellular zidovudine triphosphate in peripheral blood mononuclear cells of HIV-infected volunteers (reverse transcriptase bioassay). It counts as in vivo, human. The protocol:
Peripheral blood mononuclear cell isolation. Heparinized blood from normal human volunteers or asymptomatic HIV seropositive individuals was diluted 1:1 with HBSS, layered onto LSM (Ficoll hypaque) and then separated by centrifugation for 30 min at 400×g. The mononuclear cell layer was removed, washed once with growth media, counted, and pelleted by centrifugation. The cells were then resuspended in growth medium (RPMI containing 10% fetal calf serum) and the residual erythrocytes lysed by the addition of 3 volumes of cold water for 30 seconds. Erythrocyte lysis was stopped by the addition of 1 volume of 0.6M sodium chloride, and the mononuclear cells were pelleted by centrifugation.
Uncultured peripheral blood mononuclear cells from zidovudine-treated patients were resuspended in 1 ml of media and transferred to a 1.5 ml centrifuge tube, spun 1 min at 14,000 rpm, the media removed, and pulsed again to allow removal of any residual media. The cells were extracted for at least 15 min with 200 μl of ice cold 70% methanol per 1×10^7 cells. The cell debris was removed by centrifugation for 15 min at 14,000 rpm and the supernate stored in -20° C. until required for analysis. Prior to use, the extracts were dried under vacuum and resuspended in 50 μl of 5 mM Tris-HCl buffer (pH 8.5); extracts from 0.5×10^7 CEM cells or 1×10^7 cultured peripheral blood mononuclear cells were reconstituted in 200 μl buffer.
as §1
The zidovudine-free peripheral blood mononuclear cells from each individual at baseline (untreated) served as the cell background to construct the standard curve for zidovudine triphosphate determination.
(§5) Individuals in this study were HIV-infected individuals recruited from an area clinic. […] CD4 and CD8 cell counts were determined from baseline samples.

For data set [7], the system named is CEM cells. Nature of the data set: Zidovudine triphosphate level in CEM cells by HPLC-radioactive method. The conditions noted are these: 4 hr incubation with 1 μM zidovudine, n = 1. The class given is in vitro ADME. The procedure:
as §4, §2
(§6) Buffers used in the separation procedure were A--0.005M ammonium phosphate at pH 4.0+10% methanol and B--0.7M ammonium phosphate at pH 4.6+10% methanol.
as §3

Data set [8] in a line: Plasma zidovudine concentrations and pharmacokinetics in HIV-infected volunteers (RIA). The conditions noted are these: for concentration at 1 h: po; for AUC: read-out: AUC (area under the curve), median; for half-life: read-out: t1/2 (half life), median (converted). It counts as in vivo, human. The protocol:
Pharmacokinetic studies in patients. To assess the utility and sensitivity of the bioassay of the invention in patients, a clinical study was performed. The study was approved by the Institutional Review Board of St. Jude Children's Research Hospital and informed consent was obtained from each individual according to institutional procedures.
as §5
Prior distributions for the parameters were assumed to be log normally distributed with known but independent variances (i.e., no parameter covariance) and were taken from previous studies in similar patients (Flether et al., Pharmacotherapy 12:429-434 (1992)).
Plasma samples were heat inactivated at 56° C. for 4 hours prior to assay. The samples were diluted to obtain values within a standard curve range of 10-200 ng/ml with 200 μl of sample. […] Five-hundred μl of a secondary antibody precipitating complex was added and incubated for 20 min at room temperature. The resultant mixtures were centrifuged, the supernate decanted, and the precipitate counted using an LKB gamma counter connected to an IBM PC computer with an RIA Calif. LC software program.

Data set [9] deals with peripheral blood mononuclear cells. Nature of the data set: Phosphorylation of zidovudine in peripheral blood mononuclear cells in vitro. It counts as in vitro ADME, human. The conditions noted are these: proliferating compared to resting cells; 1 μM [^3 H]zidovudine. The protocol:
Culture of human peripheral blood mononuclear cells. The peripheral blood mononuclear cells were suspended in growth media and transferred to plastic tissue culture flasks. The monocyte/macrophage cells were allowed to adhere to the flask for at least 60 min after which the non-adherent cells comprises primarily of lymphocytes were transferred to a new flask. The cells were stimulated by addition of 5 μg/ml of PHA-P and 10 units/ml of IL-2 and incubated for 72 hours at 37° C. prior to use. Fresh media was added every 24 hours to maintain the IL-2 concentration. If quiescent cells were required the PHA-P and IL-2 were omitted and the cells were used the following day.
as §4, §6

[10] abbreviates: 10 to 500 fmol, no cell extract.
The mark [11] stands for this setting: spiked with extract of peripheral blood mononuclear cells (about 10^6 cells).
Where [12] appears, read: human, plasma, 100 mg single oral dose.
[13] abbreviates: human, plasma, 500 mg single oral dose.

As usually defined, the AUC is concentration integrated over time.

Like-named read-outs stand apart in the source and are kept apart here.

As to `Cc1cn([C@H]2C[C@H](O)[C@@H](COP(=O)(O)O)O2)c(=O)[nH]c1=O` [thymidine monophosphate (TMP), thymidine monophosphate], the “inhibition of reverse transcriptase activity (effect on reaction kinetics)” value in [1] is given as “did not affect the reaction kinetics”.
As for `Cc1cn([C@H]2C[C@H](N=[N+]=[N-])[C@@H](CO[P@](=O)(O)O[P@](=O)(O)OP(=O)(O)O)O2)c(=O)[nH]c1=O` [zidovudine triphosphate], in [2], the “inhibition of HIV reverse transcriptase” value was “potent inhibitor”. Besides, in data set [2], the “reverse transcriptase chain termination” value is reported as “causes reverse transcriptase chain termination”. The “Zidovudine Triphosphate” value in data set [3] came to 1.50 ± 0.65 pmol/10^6 cells; in data set [4], 1.39 ± 0.17 pmol/10^6 cells; in data set [7], 1.42 pmol/10^6 cells. The “zidovudine triphosphate level relative to the patent's results” value in [5] is 10 -fold higher. Besides, the “coefficient of regression of linear inhibition kinetics” value in [1] (setting [10]) came out at 0.99. In addition, the entries for the “inhibition kinetics of HIV reverse transcriptase” value in data set [1] (setting [10]) and in data set [1] (setting [11]) were “linear inhibition kinetics” and “good linear kinetics”, respectively. Further, in [1] (setting [11]), the “R of linear inhibition kinetics” value is given as > 0.98. Moreover, the “proportion of median plateau values” in data set [6] (500 mg vs 100 mg) turned out to be 1.7. The “time course of zidovudine triphosphate values” in data set [6] (1 to 6 hours after zidovudine) is “increased from 1 to 2 hours (Table 3 (below)) and then remained at a plateau value through 6 hours”. For the same molecule, the “measurability of zidovudine triphosphate after zidovudine administration” value in [6] (100 or 500 mg zidovudine) was “could be measured in all 12 volunteers”. Also, the “Median Ratio (500/100)” value in [6] (1 h) is recorded as 8.4; in data set [6] (2 h), 1.6; in [6] (4 h), 1.5; in data set [6] (6 h) it was 2.1. For the same molecule, in data set [6] (after 100 or 500 mg zidovudine), the “% CV range of intracellular zidovudine triphosphate” value was 52-157%.
In the case of `Cc1cn([C@H]2C[C@H](N=[N+]=[N-])[C@@H](CO)O2)c(=O)[nH]c1=O` [zidovudine, 3'-azido-3'-deoxythymidine], the “Plasma Zidovudine” value in data set [8] (100 mg single oral dose, 6 h, #ND = plasma zidovudine concentration below standard curve in 4 of 5 patients) is on record as “ND#”. The “difference of CLo between dose groups” value in data set [8] (100 mg vs 500 mg, p>0.2 by Mann-Whitney U test) is “not significantly different”. Moreover, the concentration at 1 h in data set [8] (human, plasma, 100 mg dose) came to 1790 nM. The concentration at 1 h in [8] (human, plasma, 500 mg dose) is 6300 nM. Moreover, in data set [8] (setting [12]), the concentration at 2 h came to 760 nM, the concentration at 4 h turned out to be 260 nM, the AUC worked out at 1200 ng·h/mL and the half-life is 1.29 h. Also, in data set [8] (setting [13]), the concentration at 2 h amounted to 3000 nM, the concentration at 4 h stood at 900 nM, the exposure (AUC) came to 4200 ng·h/mL and the half-life was 1.07 h. Moreover, the concentration at 6 h in data set [8] (human, plasma, 500 mg single oral dose, 6 h) is 360 nM. Moreover, the “phosphorylation rate of zidovudine” value in [9] was “high phosphorylation rate”.
Regarding `Cc1cn([C@H]2C[C@H](N=[N+]=[N-])[C@@H](COP(=O)(O)O)O2)c(=O)[nH]c1=O` [zidovudine-MP], in data set [1], the “inhibition of reverse transcriptase activity (effect on reaction kinetics)” value is “did not affect the reaction kinetics”.

Values taken from patent US5576177A, “Bioassay for reverse transcriptase inhibitors” (St. Jude Children's Research Hospital, priority 1994, dated 1996).
